Among the data in patent US8754071B2 (priority 2011, dated 2014) are IC50 values, retold here.

In this assay the target is T1, c-kit (Homo sapiens, UniProt P10721).
T1 construct: human Mo7e cells which endogenously express c-kit; endogenous in cells; host or cells: human Mo7e cells (promegakaryocytic leukemia line), stimulated with human recombinant SCF
In words: Mo7e cell proliferation assay (SCF dependent proliferation). It is filed as cell-based. The following applies: Table 2; human Mo7e cells stimulated with SCF, 48 hours, CellTiter Glo; 1% FBS; read-out: c-kit (Mo7e). The gist of the method:
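Human Mo7e cells with endogenous c-kit, proliferation driven by SCF, 384-well format. After 48 h at 37 °C viability read by CellTiter-Glo luminescence. IC50 taken as concentration giving response halfway between baseline and maximum.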
On the technique in general: In ATP-based viability assays light output follows the ATP content of the culture.

T1 sequence (P10721 26-976): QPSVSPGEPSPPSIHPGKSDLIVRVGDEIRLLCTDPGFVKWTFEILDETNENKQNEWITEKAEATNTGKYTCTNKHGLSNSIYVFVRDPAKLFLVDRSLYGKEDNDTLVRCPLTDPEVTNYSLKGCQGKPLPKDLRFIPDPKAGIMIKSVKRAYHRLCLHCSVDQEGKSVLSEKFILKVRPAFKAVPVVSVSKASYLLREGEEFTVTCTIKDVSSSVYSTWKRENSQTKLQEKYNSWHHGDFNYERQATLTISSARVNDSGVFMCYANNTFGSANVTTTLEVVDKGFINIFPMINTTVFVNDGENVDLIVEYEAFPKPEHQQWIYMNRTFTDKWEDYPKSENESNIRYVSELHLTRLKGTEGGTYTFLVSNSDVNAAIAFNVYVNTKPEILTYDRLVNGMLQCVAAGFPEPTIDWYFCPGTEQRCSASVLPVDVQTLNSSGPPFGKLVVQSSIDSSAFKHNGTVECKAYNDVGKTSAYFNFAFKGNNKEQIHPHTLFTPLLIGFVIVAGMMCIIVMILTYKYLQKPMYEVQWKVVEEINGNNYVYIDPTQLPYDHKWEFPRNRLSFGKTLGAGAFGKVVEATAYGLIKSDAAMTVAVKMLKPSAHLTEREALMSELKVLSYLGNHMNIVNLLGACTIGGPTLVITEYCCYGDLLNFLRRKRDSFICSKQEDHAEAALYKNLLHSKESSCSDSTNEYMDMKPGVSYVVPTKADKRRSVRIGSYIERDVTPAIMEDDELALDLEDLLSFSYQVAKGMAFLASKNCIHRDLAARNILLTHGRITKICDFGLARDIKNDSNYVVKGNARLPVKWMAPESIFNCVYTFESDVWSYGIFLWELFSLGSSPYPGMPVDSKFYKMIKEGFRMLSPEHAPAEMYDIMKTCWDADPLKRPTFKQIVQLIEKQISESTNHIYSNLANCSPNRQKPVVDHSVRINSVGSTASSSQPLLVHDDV

With `Cc1ccc(-c2noc([C@@H]3CCCN3C(=O)OC(C)(C)C)n2)cc1NC(=O)c1cnc2ccccn12` [F176], the IC50 turned out to be 452 nM. Regarding `COC(=O)N1CC(Cc2nc(-c3ccc(C)c(NC(=O)c4cnc5ccccn45)c3)no2)C1` [F177], the IC50 came to 398 nM.

In the case of `Cc1ccc(-c2noc(CC3CN(S(C)(=O)=O)C3)n2)cc1NC(=O)c1cnc2ccccn12` [F178], the IC50 was 476 nM.

Take `Cc1ccc(-c2noc(CCN3CC(F)(F)C3)n2)cc1NC(=O)c1cnc2ccccn12` [F179]: the IC50 stood at 119 nM. The same measure for `Cc1ccc(-c2noc(CCN3CCOCC3)n2)cc1NC(=O)c1cnc2ccccn12` [F180]: 169 nM; for `Cc1ccc(-c2noc(CN3CC(CO)C3)n2)cc1NC(=O)c1cnc2ccccn12` [F181]: 337 nM; for `COCC1CN(Cc2nc(-c3ccc(C)c(NC(=O)c4cnc5ccccn45)c3)no2)C1` [F182]: 259 nM. On to `Cc1ccc(-c2noc(C(NC(=O)OC(C)(C)C)C3COC3)n2)cc1NC(=O)c1cnc2ccccn12` (centres unmarked) [F183], for which the IC50 was 454 nM. In the case of `Cc1ccc(-c2noc(C[C@@H]3CCN(C(=O)OC(C)(C)C)C3)n2)cc1NC(=O)c1cnc2ccccn12` [F184], the IC50 came out at 496 nM. `Cc1ccc(-c2noc(C[C@H]3CCN(C(=O)OC(C)(C)C)C3)n2)cc1NC(=O)c1cnc2ccccn12` [F185]: the IC50 is 452 nM.

For `Cc1ccc(-c2noc([C@@H]3CCCN(C(=O)OC(C)(C)C)C3)n2)cc1NC(=O)c1cnc2ccccn12` [F186], the IC50 worked out at 291 nM. In the case of `Cc1ccc(-c2noc([C@H]3CCCN(C(=O)OC(C)(C)C)C3)n2)cc1NC(=O)c1cnc2ccccn12` [F187], the IC50 turned out to be 320 nM. For `Cc1ccc(-c2noc(C3CNCCO3)n2)cc1NC(=O)c1cnc2ccccn12` (centres unmarked) [F188], the IC50 is 399 nM. As for `Cc1ccc(-c2noc([C@H]3CNCCO3)n2)cc1NC(=O)c1cnc2ccccn12` [F189], the figure is 824 nM; as for `Cc1ccc(-c2noc([C@@H]3CCCN3)n2)cc1NC(=O)c1cnc2ccccn12` [F190], 476 nM; as for `Cc1ccc(-c2noc([C@@H]3CCC(=O)N3)n2)cc1NC(=O)c1cnc2ccccn12` [F191], 465 nM. As for `Cc1ccc(-c2noc(C3CCC(=O)N3)n2)cc1NC(=O)c1cnc2ccccn12` (centres unmarked) [F192], the IC50 is 672 nM.

With `CC(=O)N1CCC(c2nc(-c3ccc(C)c(NC(=O)c4cnc5ccccn45)c3)no2)CC1` [F193], the IC50 stood at 354 nM. Regarding `COC(=O)N1CCOC(c2nc(-c3ccc(C)c(NC(=O)c4cnc5ccccn45)c3)no2)C1` (centres unmarked) [F194], the IC50 is 105 nM. As for `CC(=O)N1CCOC(c2nc(-c3ccc(C)c(NC(=O)c4cnc5ccccn45)c3)no2)C1` (centres unmarked) [F195], the figure is 566 nM. Consider `COC(=O)N1CCC[C@H]1c1nc(-c2ccc(C)c(NC(=O)c3cnc4ccccn34)c2)no1` [F196], for which the IC50 is 475 nM. As for `CC(=O)N1CCC[C@H]1c1nc(-c2ccc(C)c(NC(=O)c3cnc4ccccn34)c2)no1` [F197], the IC50 is 460 nM. Take `COC(=O)N1CCO[C@@H](c2nc(-c3ccc(C)c(NC(=O)c4cnc5ccccn45)c3)no2)C1` [F198]: the IC50 was found to be 142 nM.

As to `CC(=O)N1CCO[C@@H](c2nc(-c3ccc(C)c(NC(=O)c4cnc5ccccn45)c3)no2)C1` [F199], the IC50 was found to be 509 nM. The same measure for `Cc1ccc(-c2noc([C@H]3CCCN3)n2)cc1NC(=O)c1cnc2ccccn12` [F200]: 395 nM; for `COC(=O)N1CC(c2nc(-c3ccc(F)c(NC(=O)c4cnc5ccccn45)c3)no2)C1` [F201]: 443 nM. Regarding `Cc1ccc(-c2noc([C@@H]3CCN3C(=O)OC3(C)CC3)n2)cc1NC(=O)c1cnc2ccccn12` [F202], the IC50 stood at 208 nM. Take `Cc1ccc(-c2noc([C@@H]3CCCNC3)n2)cc1NC(=O)c1cnc2ccccn12` [F203]: the IC50 turned out to be 826 nM. For the compound `COC(=O)N1CC[C@@H](Cc2nc(-c3ccc(C)c(NC(=O)c4cnc5ccccn45)c3)no2)C1` [F204], the IC50 was determined as 200 nM.

`COC(=O)N1CC[C@H](Cc2nc(-c3ccc(C)c(NC(=O)c4cnc5ccccn45)c3)no2)C1` [F205]: the IC50 is 284 nM. Take `Cc1ccc(-c2noc(C[C@H]3CCN(S(C)(=O)=O)C3)n2)cc1NC(=O)c1cnc2ccccn12` [F206]: the IC50 was determined as 169 nM. The same measure for `COC(=O)N1CCC[C@@H](c2nc(-c3ccc(C)c(NC(=O)c4cnc5ccccn45)c3)no2)C1` [F207]: 141 nM; for `COC(=O)N1CCC[C@H](c2nc(-c3ccc(C)c(NC(=O)c4cnc5ccccn45)c3)no2)C1` [F208]: 134 nM; for `Cc1ccc(-c2noc([C@H]3CCCN(S(C)(=O)=O)C3)n2)cc1NC(=O)c1cnc2ccccn12` [F209]: 148 nM. On to `Cc1ccc(-c2noc(CC3CCN(C(=O)OC(C)(C)C)CC3)n2)cc1NC(=O)c1cnc2ccccn12` [F210], for which the IC50 was 710 nM. As to `Cc1ccc(-c2noc(C[C@@H]3CCCN3C(=O)OC(C)(C)C)n2)cc1NC(=O)c1cnc2ccccn12` [F211], the IC50 amounted to 106 nM. For `COC(=O)N1CCC[C@@H]1c1nc(-c2ccc(C)c(NC(=O)c3cnc4ccccn34)c2)no1` [F212], the IC50 was determined as 170 nM.

For `Cc1ccc(-c2noc([C@H]3CCCN3S(C)(=O)=O)n2)cc1NC(=O)c1cnc2ccccn12` [F213], the IC50 was 137 nM. With `COC(=O)N1CCC(Cc2nc(-c3ccc(C)c(NC(=O)c4cnc5ccccn45)c3)no2)CC1` [F214], the IC50 came out at 142 nM. For `Cc1ccc(-c2noc(CC3CCN(S(C)(=O)=O)CC3)n2)cc1NC(=O)c1cnc2ccccn12` [F215], the IC50 worked out at 175 nM. On to `Cc1ccc(-c2noc(C[C@@H]3CCCN3)n2)cc1NC(=O)c1cnc2ccccn12` [F216], for which the IC50 was 519 nM. As for `Cc1ccc(-c2noc(C3CN(S(=O)(=O)c4cnn(C)c4)C3)n2)cc1NC(=O)c1cnc2ccccn12` [F217], the IC50 came to 173 nM. As for `Cc1ccc(-c2noc(C3CN(S(=O)(=O)c4cn[nH]c4)C3)n2)cc1NC(=O)c1cnc2ccccn12` [F218], the figure is 155 nM. For `CCCCS(=O)(=O)N1CC(c2nc(-c3ccc(F)c(NC(=O)c4cnc5ccccn45)c3)no2)C1` [F219], the IC50 was found to be 158 nM.

`O=C(Nc1cc(-c2noc(C3CN(S(=O)(=O)c4cccnc4)C3)n2)ccc1F)c1cnc2ccccn12` [F220]: the IC50 amounted to 690 nM. Take `Cn1ccc(S(=O)(=O)N2CC(c3nc(-c4ccc(F)c(NC(=O)c5cnc6ccccn56)c4)no3)C2)n1` [F221]: the IC50 was determined as 851 nM. `COCCS(=O)(=O)N1CC(c2nc(-c3ccc(F)c(NC(=O)c4cnc5ccccn45)c3)no2)C1` [F222]: the IC50 was determined as 376 nM. With `O=C(Nc1cc(-c2noc(C3CN(S(=O)(=O)C(F)F)C3)n2)ccc1F)c1cnc2ccccn12` [F223], the IC50 worked out at 151 nM. For the compound `Cn1cc(S(=O)(=O)N2CC(c3nc(-c4ccc(F)c(NC(=O)c5cnc6ccccn56)c4)no3)C2)cn1` [F224], the IC50 amounted to 854 nM. As for `COCCCN1CC(c2nc(-c3ccc(C)c(NC(=O)c4cnc5ccccn45)c3)no2)C1` [F225], the IC50 amounted to 239 nM. For `Cc1ccc(-c2noc([C@@H](C)N3CC(F)(F)C3)n2)cc1NC(=O)c1cnc2ccccn12` [F226], the IC50 is 112 nM. As for `Cc1ccc(-c2noc([C@@H](C)N3CCC(F)(F)C3)n2)cc1NC(=O)c1cnc2ccccn12` [F227], the figure is 119 nM. With `O=C(Nc1cc(-c2noc(CN3CC(F)(F)C3)n2)ccc1F)c1cnc2ccccn12` [F228], the IC50 worked out at 341 nM.
